Measurements: article PMC12505902, “Inhibitors of trehalose-6-phosphate synthase activity in fungal pathogens compromise thermal tolerance pathways” (mBio, 2025)
Like-named read-outs stand apart in the source and are kept apart here.

Test system: C. albicans (SC5314)
Assay: MIC dose-response assay in YPD
Assay type: cell-based
Description: We tested the effects of 4456dh on live cells by determining the minimal inhibitory concentration causing 80% growth reduction (MIC80). […] The MIC80 increased at 30°C to greater than 13 mM (Fig. S7A).
Fig 4 4456dh inhibits the growth of Candida and Cryptococcus species. […] 4456dh was administered at the concentrations indicated. Cultures were grown in YPD at the listed temperatures for 48 hours for Candida species and 72 hours for Cryptococcus species. Experimental temperatures reflect the temperatures at which the fungi experience heat stress. Left: relative growth of treated samples was calculated by averaging technical triplicates and normalizing the OD600 of each treated well to the average OD600 of the untreated WT controls, after the absorbance due to the compound was subtracted. The MIC80 values, calculated based on the OD600 values, are indicated in the white text on each heat map. Right: representative spot assays show the ability of cells to grow after exposure to 4456dh and indicate fungicidal activity of 4456dh. […]
102 determined by identifying the inflection point of the derivative data.
103 Tps1 Enzyme Activity Assay
104 The catalytic activity of C. albicans Tps1 and C. neoformans Tps1 was measured via a continuous
105 enzyme- coupled assay as previously reported ( 4) . […]
110 bottomed 96-well microtiter plates and the decrease in absorbance at 340 nm during the initial
111 reaction rate was recorded using a plate reader (Tecan). The decrease in absorbance was
112 analyzed for the first 200s of the kinetic reaction. […]
116 the overnight cultures was quantified by measuring the OD600 and corrected for the background
117 absorbance of the medium. Antifungal potency for 4456dh was assessed by minimum inhibitory […]
124 technical replicates. Growth, as determined by a reading of absorbance at 600 nm, was
125 normalized to untreated controls and was corrected for the absorbance of 4456dh in the YPD […]
129 overnight cultures was quantified by measuring the OD600 and corrected for the background
130 absorbance of the medium. Antifungal potency for 4456dh was assessed by minimum inhibitory […]

Cn1cc(-c2csc(NC(=O)Cc3ccccn3)n2)cn1 [Compound 4456dh]
MIC80 (30°C, YPD): no MIC was detected
MIC80 (Candida albicans, SC5314, 42°C, YPD, 48 hours, read-out: MIC80): 13 mM
MIC80 (Candida albicans, SC5314, Supplemental Table 5, This publication, read-out: MIC80): 5160 µg/mL
